# According to PubChem BioAssay AID220 (DTP/NCI, 2004):
# Where “and” joins values, the source holds several entries; their conditions need not be identical. Equal values may be shown once. Results filed as inconclusive are left out. Positions of bridges follow the written chain, without caps; N, C: chain ends. Non-standard residues stand in square brackets, D forms with d. Residues, ends and D or L forms follow the SMILES beside them. Chains are numbered I, II in the order given. *: point of attachment. Quinoxaline2carbonyl = O=C(c1cnc2ccccc2n1)*; NMeV = CN[CH](C(=O)O)C(C)C; NMeC = CN[CH](CS)C(=O)O
# System: CD8F1 mice, subcutaneous mammary adenocarcinoma, T/C%
# Assay: NCI In Vivo Anticancer Drug Screen. Data for tumor model Mammary Adenocarcinoma CD8F1 (subcutaneous) in CD8F1
# Conditions: higher = larger tumour
# Summary of the method: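 Mice carrying transplanted tumors received test compound, and survival or tumor size was recorded. Each value is the treated-group measurement divided by the corresponding measurement in vehicle-dosed controls.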
# [1] = endpoint: median tumor weight (est.), dose: 25.0 mg/kg/injection, schedule: Q07DX005 (ip), vehicle: suspension in saline
# [2] = endpoint: median tumor weight (est.), dose: 50.0 mg/kg/injection, schedule: Q07DX005 (ip), vehicle: suspension in saline
# [3] = endpoint: median tumor weight (est.), dose: 12.5 mg/kg/injection, schedule: Q07DX005 (ip), vehicle: saline
# [4] = endpoint: median tumor weight (est.), dose: 25.0 mg/kg/injection, schedule: Q07DX005 (ip), vehicle: saline
# [5] = endpoint: median tumor weight (est.), dose: 100.0 mg/kg/injection, schedule: Q07DX005 (ip), vehicle: saline
# [6] = endpoint: median tumor weight (est.), dose: 200.0 mg/kg/injection, schedule: Q07DX005 (ip), vehicle: saline
# [7] = endpoint: median tumor weight (est.), dose: 400.0 mg/kg/injection, schedule: Q07DX005 (ip), vehicle: saline
# [8] = endpoint: median tumor weight (est.), dose: 12.5 mg/kg/injection, schedule: Q07DX005 (ip), vehicle: saline with Tween-80
# [9] = endpoint: median tumor weight (est.), dose: 50.0 mg/kg/injection, schedule: Q07DX005 (ip), vehicle: saline with Tween-80
# [10] = endpoint: median tumor weight (est.), dose: 4.0 mg/kg/injection, schedule: Q07DX005 (ip), vehicle: saline
# [11] = endpoint: median tumor weight (est.), dose: 8.0 mg/kg/injection, schedule: Q07DX005 (ip), vehicle: saline
structure (smiles),measurement,setting,value
CC(=O)C(=O)O.CC(=O)C(=O)O.[NH-]C1CCCCC1[NH-].[Pt+2] (stereo not given),T/C,"endpoint: median tumor weight change, dose: 15.0 mg/kg/injection, schedule: Q01DX001 (ip), vehicle: dextrose",70 % of control
same,T/C,"endpoint: median tumor weight change, dose: 30.0 mg/kg/injection, schedule: Q01DX001 (ip), vehicle: dextrose",79 % of control
same,T/C,"endpoint: median tumor weight change, dose: 60.0 mg/kg/injection, schedule: Q01DX001 (ip), vehicle: dextrose",51 % of control
same,T/C,"endpoint: median tumor weight change, dose: 62.5 mg/kg/injection, schedule: Q01DX001 (ip), vehicle: dextrose",-38 % of control
same,T/C,"endpoint: median tumor weight change, dose: 120.0 mg/kg/injection, schedule: Q01DX001 (ip), vehicle: dextrose",45 % of control
NC1=NCN(C2OC(CO)C(O)C2O)C(=O)N1 (stereo not given),T/C,"endpoint: median tumor weight (est.), dose: 25.0 mg/kg/injection, schedule: Q07DX004 (ip), vehicle: saline",74 % of control
same,T/C,[1],59 % of control
same,T/C,"endpoint: median tumor weight (est.), dose: 50.0 mg/kg/injection, schedule: Q07DX004 (ip), vehicle: saline",76 % of control
same,T/C,[2],45 % of control
same,T/C,"endpoint: median tumor weight (est.), dose: 100.0 mg/kg/injection, schedule: Q07DX004 (ip), vehicle: saline",107 % of control
same,T/C,"endpoint: median tumor weight (est.), dose: 100.0 mg/kg/injection, schedule: Q07DX005 (ip), vehicle: suspension in saline",56 % of control
same,T/C,"endpoint: median tumor weight (est.), dose: 200.0 mg/kg/injection, schedule: Q07DX004 (ip), vehicle: saline",72 % of control
same,T/C,"endpoint: median tumor weight (est.), dose: 200.0 mg/kg/injection, schedule: Q07DX005 (ip), vehicle: suspension in saline",61 % of control
same,T/C,"endpoint: median tumor weight (est.), dose: 400.0 mg/kg/injection, schedule: Q07DX004 (ip), vehicle: saline",49 % of control
same,T/C,"endpoint: median tumor weight (est.), dose: 400.0 mg/kg/injection, schedule: Q07DX005 (ip), vehicle: suspension in saline",34 % of control
same,T/C,"endpoint: median tumor weight (est.), dose: 800.0 mg/kg/injection, schedule: Q07DX004 (ip), vehicle: saline",35 % of control
same,T/C,"endpoint: median tumor weight (est.), dose: 800.0 mg/kg/injection, schedule: Q07DX005 (ip), vehicle: suspension in saline",13 % of control
OCC1OC(n2cnc3c(Cl)ncnc32)C(O)C1O (stereo not given),T/C,[3],90 % of control
same,T/C,[4],26 % of control
same,T/C,[5],28 % of control
same,T/C,[6],71 % of control
same,T/C,[7],115 % of control
Nc1nc(N)c2cc(CNc3ccc(C(=O)NC(CC(=O)O)CC(=O)O)cc3)ccc2n1,T/C,"endpoint: median tumor weight (est.), dose: 12.5 mg/kg/injection, schedule: Q07DX005 (ip), vehicle: Klucel (hydroxypropylcellulose) (HPC)",86 % of control
same,T/C,"endpoint: median tumor weight (est.), dose: 25.0 mg/kg/injection, schedule: Q07DX005 (ip), vehicle: Klucel (hydroxypropylcellulose) (HPC)",92 % of control
same,T/C,"endpoint: median tumor weight (est.), dose: 50.0 mg/kg/injection, schedule: Q07DX005 (ip), vehicle: Klucel (hydroxypropylcellulose) (HPC)",81 % of control
same,T/C,"endpoint: median tumor weight (est.), dose: 100.0 mg/kg/injection, schedule: Q07DX005 (ip), vehicle: Klucel (hydroxypropylcellulose) (HPC)",54 % of control
CCC1CN2C(=N1)c1ccccc1-c1cc(Cl)ccc12 (stereo not given),T/C,"endpoint: median tumor weight (est.), dose: 3.12 mg/kg/injection, schedule: Q07DX005 (ip), vehicle: saline",82 % of control
same,T/C,"endpoint: median tumor weight (est.), dose: 3.12 mg/kg/injection, schedule: Q07DX005 (ip), vehicle: suspension in saline",111 % of control
same,T/C,"endpoint: median tumor weight (est.), dose: 6.25 mg/kg/injection, schedule: Q07DX005 (ip), vehicle: saline",42 % of control
same,T/C,[3],43 % of control
same,T/C,"endpoint: median tumor weight (est.), dose: 12.5 mg/kg/injection, schedule: Q07DX005 (ip), vehicle: suspension in saline",98 % of control
same,T/C,[4],30 % of control
same,T/C,[1],64 % of control
same,T/C,[2],97 % of control
COc1ccc2nc3cc(Cl)ccc3c(NCCNCCNCCNc3c4ccc(Cl)cc4nc4ccc(OC)cc34)c2c1,T/C,[8],86 % of control and 108 % of control
same,T/C,"endpoint: median tumor weight (est.), dose: 25.0 mg/kg/injection, schedule: Q07DX005 (ip), vehicle: saline with Tween-80",68 % of control
same,T/C,[9],88 % of control
CN(CO)c1nc(N(C)CO)nc(N(C)CO)n1,T/C,"endpoint: median tumor weight (est.), dose: 0.5 mg/kg/injection, schedule: Q07DX005 (ip), vehicle: saline",56 % of control
same,T/C,"endpoint: median tumor weight (est.), dose: 1.0 mg/kg/injection, schedule: Q07DX005 (ip), vehicle: saline",78 % of control
same,T/C,"endpoint: median tumor weight (est.), dose: 2.0 mg/kg/injection, schedule: Q07DX005 (ip), vehicle: saline",110 % of control
same,T/C,[10],48 % of control
same,T/C,"endpoint: median tumor weight (est.), dose: 6.25 mg/kg/injection, schedule: Q07DX005 (ip), vehicle: saline with Tween-80",92 % of control
same,T/C,[11],46 % of control
same,T/C,[8],116 % of control
same,T/C,"endpoint: median tumor weight (est.), dose: 12.5 mg/kg/injection, schedule: Q07DX006 (ip), vehicle: saline",288 % of control
same,T/C,"endpoint: median tumor weight (est.), dose: 16.0 mg/kg/injection, schedule: Q07DX005 (ip), vehicle: saline",14 % of control
same,T/C,"endpoint: median tumor weight (est.), dose: 25.0 mg/kg/injection, schedule: Q07DX006 (ip), vehicle: saline",42 % of control
same,T/C,[9],94 % of control
same,T/C,"endpoint: median tumor weight (est.), dose: 50.0 mg/kg/injection, schedule: Q07DX006 (ip), vehicle: saline",40 % of control
same,T/C,"endpoint: median tumor weight (est.), dose: 100.0 mg/kg/injection, schedule: Q07DX005 (ip), vehicle: saline with Tween-80",25 % of control
same,T/C,"endpoint: median tumor weight (est.), dose: 100.0 mg/kg/injection, schedule: Q07DX006 (ip), vehicle: saline",35 % of control
same,T/C,"endpoint: median tumor weight (est.), dose: 200.0 mg/kg/injection, schedule: Q07DX005 (ip), vehicle: saline with Tween-80",31 % of control
same,T/C,"endpoint: median tumor weight (est.), dose: 200.0 mg/kg/injection, schedule: Q07DX006 (ip), vehicle: saline",5 % of control
CN(C)C(=O)SC1=C(c2c(Cl)cccc2Cl)C(=O)c2ccccc21,T/C,"endpoint: median tumor weight change, dose: 125.0 mg/kg/injection, schedule: Q01DX001 (ip), vehicle: Klucel (hydroxypropylcellulose) (HPC)",101 % of control and 115 % of control
same,T/C,"endpoint: median tumor weight change, dose: 250.0 mg/kg/injection, schedule: Q01DX001 (ip), vehicle: Klucel (hydroxypropylcellulose) (HPC)",98 % of control and 109 % of control
same,T/C,"endpoint: median tumor weight change, dose: 500.0 mg/kg/injection, schedule: Q01DX001 (ip), vehicle: Klucel (hydroxypropylcellulose) (HPC)",113 % of control
same,T/C,"endpoint: median tumor weight change, dose: 1000.0 mg/kg/injection, schedule: Q01DX001 (ip), vehicle: Klucel (hydroxypropylcellulose) (HPC)",74 % of control and 75 % of control
same,T/C,"endpoint: median tumor weight change, dose: 2000.0 mg/kg/injection, schedule: Q01DX001 (ip), vehicle: Klucel (hydroxypropylcellulose) (HPC)",22 % of control and 38 % of control
NC(N)=NOCC[C@@H](N)C(=O)O,T/C,"endpoint: median tumor weight change, dose: 250.0 mg/kg/injection, schedule: Q01DX001 (ip), vehicle: saline",83 % of control
same,T/C,"endpoint: median tumor weight change, dose: 500.0 mg/kg/injection, schedule: Q01DX001 (ip), vehicle: saline",72 % of control
same,T/C,"endpoint: median tumor weight change, dose: 1000.0 mg/kg/injection, schedule: Q01DX001 (ip), vehicle: saline",75 % of control
"CC1NC(=O)C(NC(=O)c2cnc3ccccc3n2)COC(=O)C(C(C)C)N(C)C(=O)C2CSSCC(C(=O)N(C)C(C(C)C)C(=O)OCC(NC(=O)c3cnc4ccccc4n3)C(=O)NC(C)C(=O)N2C)N(C)C1=O (stereo not given) (I: Quinoxaline2carbonyl-SA[NMeC][NMeV] / II: Quinoxaline2carbonyl-SA[NMeC][NMeV]; ester I:1-II:C, I:C-II:1; disulfide I:3-II:3; configuration not given here)",T/C,"endpoint: median tumor weight change, dose: 25.0 micrograms/kg/injection, schedule: Q01DX001 (ip), vehicle: Klucel (hydroxypropylcellulose) (HPC)",77 % of control
same,T/C,"endpoint: median tumor weight change, dose: 50.0 micrograms/kg/injection, schedule: Q01DX001 (ip), vehicle: Klucel (hydroxypropylcellulose) (HPC)",91 % of control
same,T/C,"endpoint: median tumor weight change, dose: 100.0 micrograms/kg/injection, schedule: Q01DX001 (ip), vehicle: Klucel (hydroxypropylcellulose) (HPC)",89 % of control
same,T/C,"endpoint: median tumor weight change, dose: 200.0 micrograms/kg/injection, schedule: Q01DX001 (ip), vehicle: Klucel (hydroxypropylcellulose) (HPC)",68 % of control
same,T/C,"endpoint: median tumor weight change, dose: 400.0 micrograms/kg/injection, schedule: Q01DX001 (ip), vehicle: Klucel (hydroxypropylcellulose) (HPC)",59 % of control
O=S(=O)(CCl)OCCCl,T/C,"endpoint: median tumor weight change, dose: 62.5 mg/kg/injection, schedule: Q01DX001 (ip), vehicle: saline with Tween-80",56 % of control
same,T/C,"endpoint: median tumor weight change, dose: 125.0 mg/kg/injection, schedule: Q01DX001 (ip), vehicle: saline with Tween-80",60 % of control
same,T/C,"endpoint: median tumor weight change, dose: 250.0 mg/kg/injection, schedule: Q01DX001 (ip), vehicle: saline with Tween-80",69 % of control
O=C(CCCCCCC(=O)ON1C(=O)CCC1=O)ON1C(=O)CCC1=O,T/C,"endpoint: median tumor weight change, dose: 187.5 mg/kg/injection, schedule: Q01DX001 (ip), vehicle: saline with Tween-80",100 % of control
same,T/C,"endpoint: median tumor weight change, dose: 375.0 mg/kg/injection, schedule: Q01DX001 (ip), vehicle: saline with Tween-80",102 % of control
same,T/C,"endpoint: median tumor weight change, dose: 750.0 mg/kg/injection, schedule: Q01DX001 (ip), vehicle: saline with Tween-80",51 % of control
N/C(=N\O)c1cn(C2OC(CO)C(O)C2O)c2ncnc(N)c12 (stereo not given),T/C,[10],100 % of control
same,T/C,[11],112 % of control
N/C=N/O,T/C,[4],109 % of control
same,T/C,"endpoint: median tumor weight (est.), dose: 50.0 mg/kg/injection, schedule: Q07DX005 (ip), vehicle: saline",181 % of control
same,T/C,[5],164 % of control
same,T/C,[6],105 % of control
same,T/C,[7],97 % of control
same,T/C,"endpoint: median tumor weight (est.), dose: 600.0 mg/kg/injection, schedule: Q07DX005 (ip), vehicle: saline",78 % of control
